Experimental data taken from publication PMC9445081, “Structural basis for recognition of N-formyl peptides as pathogen-associated molecular patterns” (Nature Communications, 2022).
Where a chain is given by its changes, count along the chain named.

Assays:
Format in all cases: cell-based
[1] = target: T1, FPR1 R205A (Homo sapiens, UniProt P21462, R205A); assay: cAMP inhibition assay, FPR1 R205A
T1 construct: expressed in transfected cells; host or cells: HeLa cells, transient, pcDNA3.1(+)
T1 sequence (P21462 1-350 R205A): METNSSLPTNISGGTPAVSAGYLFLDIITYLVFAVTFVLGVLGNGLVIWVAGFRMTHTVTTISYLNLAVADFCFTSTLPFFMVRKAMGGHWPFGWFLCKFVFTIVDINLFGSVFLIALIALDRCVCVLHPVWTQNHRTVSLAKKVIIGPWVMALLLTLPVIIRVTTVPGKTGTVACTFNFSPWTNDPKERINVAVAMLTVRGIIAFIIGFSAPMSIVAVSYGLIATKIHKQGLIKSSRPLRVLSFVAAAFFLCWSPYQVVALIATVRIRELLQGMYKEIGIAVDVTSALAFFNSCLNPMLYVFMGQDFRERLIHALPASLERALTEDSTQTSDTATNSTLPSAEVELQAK
Source text: (§1) FPR1 cDNA in the pcDNA3.1(+) vector (Invitrogen) was used as a template for gene manipulation. The mutations of FPR1 were introduced in the receptor through overlap extension PCR with elaborately designed primers (GENEWIZ, Suzhou, China). The sequences of the primers were listed in Supplementary Table 2. Two fragments of FPR1 (separated at mutated positions) were assembled into pre-cut pcDNA3.1(+) vectors with the ClonExpress Ultra One Step Cloning Kit (Vazyme Biotech, C115). Plasmids with FPR1 mutations were confirmed by DNA sequencing (GENEWIZ).
(§2) For functional studies, FPR1 and its mutants were expressed in HeLa cells as above. The cells were resuspended in HBSS buffer plus 5 mM HEPES, 0.1% BSA (w/v) and 0.5 mM 3-isobutyl-1-methylxanthine and seeded into 384-well plates. […] AG-14 was synthesized by Sungening Biotechnology (Shenzhen, China). Different concentrations of the ligands were prepared plus a fixed dose of forskolin with the buffer above. […] Intracellular cAMP levels were measured with the LANCE Ultra cAMP kit (PerkinElmer, TRF0263) following the manufacturer’s instructions. […] Intracellular cAMP levels were calculated according to the TR-FRET signals of the samples and cAMP standards.
(§3) The data were analyzed with Prism 6.0 (GraphPad, San Diego, CA). For dose-response analysis, the curves were plotted with the log[agonist] vs. response equation (three parameters) in the software. Data points were presented as the percentages (mean ± SEM) of the maximal cAMP level for each construct, from at least three independent experiments, as indicated in figure legends. The pEC50 values were the negative logarithm of the EC50 values, which were obtained from the dose-response curves. For cell surface expression, data points were presented as the percentages (mean ± SEM) of the flow cytometry fluorescence signals of WT FPR1. For statistical comparison, a p-value of 0.05 or lower is considered statistically significant.

[2] = target: T2, FPR1 R201A (Homo sapiens, UniProt P21462, R201A); assay: cAMP inhibition assay, FPR1 R201A
T2 construct: expressed in transfected cells; host or cells: HeLa cells, transient, pcDNA3.1(+)
T2 sequence (P21462 1-350 R201A): T1 sequence (P21462 1-350 R205A) with R201A, A205R
Source text: as §1
as §2, with “China).” for “China). Different concentrations of the ligands were prepared plus a fixed dose of forskolin with the buffer above.”
(§4) The data were analyzed with Prism 6.0 (GraphPad, San Diego, CA). […] For cell surface expression, data points were presented as the percentages (mean ± SEM) of the flow cytometry fluorescence signals of WT FPR1. […]

[3] = target: T3, FPR1 R84A (Homo sapiens, UniProt P21462, R84A); assay: cAMP inhibition assay, FPR1 R84A; conditions: inhibiting forskolin-elevated cAMP, HeLa cells, read-out: pEC50, mean ± SEM (converted)
T3 construct: expressed in transfected cells; host or cells: HeLa cells, transient, pcDNA3.1(+)
T3 sequence (P21462 1-350 R84A): T1 sequence (P21462 1-350 R205A) with R84A, A205R
Source text: as §1, §2, §3

[4] = target: T4, FPR1 WT (Homo sapiens, UniProt P21462); assay: cAMP inhibition assay, WT FPR1
T4 construct: expressed in transfected cells; host or cells: HeLa cells, transient, pcDNA3.1(+)
T4 sequence (P21462 1-350): T1 sequence (P21462 1-350 R205A) with A205R
Source text: as §1
as §2, with “China).” for “China). Different concentrations of the ligands were prepared plus a fixed dose of forskolin with the buffer above.”
as §4

[5] = target: T5, FPR1 Y257A (Homo sapiens, UniProt P21462, Y257A); assay: cAMP inhibition assay, FPR1 Y257A; conditions: inhibiting forskolin-elevated cAMP, HeLa cells, read-out: pEC50, mean ± SEM (converted)
T5 construct: expressed in transfected cells; host or cells: HeLa cells, transient, pcDNA3.1(+)
T5 sequence (P21462 1-350 Y257A): T1 sequence (P21462 1-350 R205A) with A205R, Y257A
Source text: as §1
as §2, with “China).” for “China). Different concentrations of the ligands were prepared plus a fixed dose of forskolin with the buffer above.”
as §4

[6] = target: T6, FPR1 W254A (Homo sapiens, UniProt P21462, W254A); assay: cAMP inhibition assay, FPR1 W254A; conditions: inhibiting forskolin-elevated cAMP, HeLa cells, read-out: pEC50, mean ± SEM (converted)
T6 construct: expressed in transfected cells; host or cells: HeLa cells, transient, pcDNA3.1(+)
T6 sequence (P21462 1-350 W254A): T1 sequence (P21462 1-350 R205A) with A205R, W254A
Source text: as §1
as §2, with “China).” for “China). Different concentrations of the ligands were prepared plus a fixed dose of forskolin with the buffer above.”
as §4

[7] = target: T7, FPR1 F291A (Homo sapiens, UniProt P21462, F291A); assay: cAMP inhibition assay, FPR1 F291A
T7 construct: expressed in transfected cells; host or cells: HeLa cells, transient, pcDNA3.1(+)
T7 sequence (P21462 1-350 F291A): T1 sequence (P21462 1-350 R205A) with A205R, F291A
Source text: as §1, §2, §3

EC50 [1]: 1000 nM
EC50 [2]: 1580 nM
EC50 [3]: 1260 nM
EC50 [4]: 398 nM
EC50 [5]: 2510 nM
EC50 [6]: 5010 nM
EC50 [7]: 2000 nM
Structure (SMILES): COc1cc(/C=N/NC(=O)c2ccc3c(c2)OCO3)ccc1OCc1ccccc1 [AG-14]
